Columns and labels:
DLD-1 [1] = assay: Cytotoxicity against human DLD-1 cells; type: functional
Phospholipase D1 = Phospholipase D1 (Homo sapiens, UniProt Q13393); assay: Inhibition of PLD1 (unknown origin)
Phospholipase D2 = Phospholipase D2 (Homo sapiens, UniProt O14939); assay: Inhibition of PLD2 (unknown origin)
LoVo [2] = assay: Antiproliferative activity against human LoVo cells by CCK-8 method; type: functional
RKO [3] = assay: Antiproliferative activity against human RKO cells by CCK-8 method; type: functional
SW-620 [4] = assay: Antiproliferative activity against human SW620 cells by CCK-8 method; type: functional
HCT-15 = assay: Antiproliferative activity against human HCT-15 cells by CCK-8 method; type: functional
HCT-116 [5] = assay: Antiproliferative activity against human HCT-116 cells by CCK-8 method; type: functional
[6] = Inhibition of NEMO/IKKbeta (unknown origin); parameters: species or system Homo sapiens
SW480 [7] = assay: Antiproliferative activity against human SW480 cells assessed as inhibition of cell growth by CellTiter 96 Aqueous One Solution Cell Proliferation Assay; type: functional, cell-based
SW-620 [8] = assay: Antiproliferative activity against human SW620 cells assessed as inhibition of cell growth by CellTiter 96 Aqueous One Solution Cell Proliferation Assay; type: functional, cell-based
LoVo [9] = assay: Antiproliferative activity against human LoVo cells assessed as inhibition of cell growth by CellTiter 96 Aqueous One Solution Cell Proliferation Assay; type: functional, cell-based
SW480 [10] = assay: Cytotoxicity against human SW480 cells assessed as inhibition of cell viability by MTT assay; type: functional
HT-29 [11] = assay: Cytotoxicity against human HT-29 cells assessed as inhibition of cell viability by MTT assay; type: functional
HCT-116 [12] = assay: Cytotoxicity against human HCT-116 cells; type: functional, cell-based
SW-620 [13] = assay: Cytotoxicity against human SW620 cells; type: functional, cell-based
HT-29 [14] = assay: Antiproliferative activity against human HT-29 cells; type: functional
HCT-116 [15] = assay: Antiproliferative activity against human HCT-116 cells incubated for 72 hrs by CCK-8 method; type: functional
SW-620 [16] = assay: Antiproliferative activity against human SW620 cells incubated for 72 hrs by CCK-8 method; type: functional
P2X purinoceptor 7 = P2X purinoceptor 7 (Homo sapiens, UniProt Q99572); assay: Antagonist activity at P2X7R (unknown origin)
LoVo [17] = assay: Antiproliferative activity against human LoVo cells assessed as inhibition of cell viability by CellTiter-Glo Luminescent Assay; type: functional
HCT-116 [18] = assay: Antiproliferative activity against human HCT-116 cells assessed as inhibition of cell viability by CellTiter-Glo Luminescent Assay; type: functional
DLD-1 [19] = assay: Antiproliferative activity against human DLD-1 cells assessed as inhibition of cell viability by CellTiter-Glo Luminescent Assay; type: functional
SW-620 [20] = assay: Antiproliferative activity against human SW-620 cells assessed as inhibition of cell viability by CellTiter-Glo Luminescent Assay; type: functional
HT-29 [21] = assay: Antiproliferative activity against human HT-29 cells assessed as inhibition of cell viability by CellTiter-Glo Luminescent Assay; type: functional
HCT-116 [22] = assay: Cytotoxicity against human HCT-116 cells assessed as inhibition of cell proliferation measured after 24 hrs by MTT assay; type: functional, cell-based; conditions: HCT-116, 24 h
RKO [23] = assay: Cytotoxicity against human RKO cells assessed as inhibition of cell proliferation measured after 24 hrs by MTT assay; type: functional, cell-based
[24] = molecular target: T1, Signal transducer and activator of transcription 3 (Homo sapiens, UniProt P40763); assay: Binding affinity to N-terminal his tagged recombinant human STAT3 expressed in insect cells assessed as dissociation constant by biolayer interferometry assay; parameters: species or system Insect cell
HCT-116 [25] = assay: Cytotoxicity against human HCT-116 cells measured after 72 hrs; type: functional, cell-based; conditions: HCT-116, 72 h
SW48 = assay: Cytotoxicity against human SW48 cells measured after 72 hrs; type: functional, cell-based; conditions: SW48, 72 h
RKO [26] = assay: Cytotoxicity against human RKO cells measured after 72 hrs; type: functional, cell-based
HT-29 [27] = assay: Cytotoxicity against human HT-29 cells measured after 72 hrs; type: functional, cell-based; conditions: HT-29, 72 h
HCT-116 [28] = assay: Cytotoxicity against p53 null human HCT-116 cells measured after 72 hrs; type: functional, cell-based; conditions: HCT-116, 72 h
RKO [29] = assay: Antiproliferative activity against human RKO cells assessed as inhibition of cell growth; type: functional, cell-based
HCT-116 [30] = assay: Antiproliferative activity against human HCT-116 cells assessed as reduction in cell viability measured after 24 hrs by CCK-8 method; type: functional, cell-based; conditions: HCT-116, 24 h
SW-620 [31] = assay: Antiproliferative activity against human SW620 cells assessed as reduction in cell viability measured after 24 hrs by CCK-8 method; type: functional, cell-based; conditions: SW-620, 24 h
SW480 [32] = assay: Cytotoxicity against human SW480 cells assessed as reduction in cell viability by MTT assay; type: functional
HCT-116 [33] = assay: Cytotoxicity against human HCT-116 cells assessed as reduction in cell viability by MTT assay; type: functional
RKO [34] = assay: Cytotoxicity against human RKO cells assessed as reduction in cell viability by MTT assay; type: functional
HT-29 [35] = assay: Cytotoxicity against human HT-29 cells assessed as reduction in cell viability by MTT assay; type: functional
[36] = molecular target: T1, Signal transducer and activator of transcription 3; assay: Binding affinity to GFP tagged STAT3 (unknown origin) assessed as dissociation constant by microscale thermophoresis analysis
HT-29 [37] = assay: Cytotoxicity against human HT-29 cells incubated for 24 hrs by MTT assay; type: functional, cell-based; conditions: HT-29, 24 h
HCT-116 [38] = assay: Cytotoxicity against human HCT-116 cells incubated for 24 hrs by MTT assay; type: functional, cell-based; conditions: HCT-116, 24 h
HCT-116 [39] = assay: Antiproliferative activity in human HCT-116 cells measured after 12 to 24 hrs by MTT assay; type: functional, cell-based
SW-620 [40] = assay: Antiproliferative activity in human SW620 cells measured after 12 to 24 hrs by MTT assay; type: functional, cell-based
HCT-116 [41] = assay: Cytotoxicity against human HCT-116 cells measured after 72 hrs by WST-1 assay; type: functional, cell-based; conditions: HCT-116, 72 h
[42] = molecular target: T1, Signal transducer and activator of transcription 3; assay: Inhibition of STAT3 (unknown origin)
HCT-116 [43] = assay: Antiproliferative activity against human HCT-116 cells assessed as inhibition of cell growth incubated for 24 hrs by cell-titer glo assay; type: functional
MC-38 = assay: Antiproliferative activity against mouse MC38 cells assessed as inhibition of cell growth incubated for 24 hrs by cell-titer glo assay; type: functional
HT-29 [44] = assay: Antiproliferative activity against human HT-29 cells assessed as inhibition of cell growth incubated for 24 hrs by cell-titer glo assay; type: functional
SW-620 [45] = assay: Antiproliferative activity against human SW620 cells assessed as reduction in cell viability; type: functional
SW480 [46] = assay: Antiproliferative activity against human SW480 cells assessed as reduction in cell viability; type: functional
HT-29 [47] = assay: Antiproliferative activity against human HT-29 cells incubated for 48 hrs by CCK-8 method; type: functional, cell-based; conditions: HT-29, 48 h
SW-620 [48] = assay: Antiproliferative activity against human SW620 cells incubated for 48 hrs by CCK-8 method; type: functional, cell-based; conditions: SW-620, 48 h
RKO [49] = assay: Antiproliferative activity against human RKO cells assessed as inhibition of cell viability measured upto 96 hrs by CCK-8 method; type: functional

T1 sequence (P40763 whole entry): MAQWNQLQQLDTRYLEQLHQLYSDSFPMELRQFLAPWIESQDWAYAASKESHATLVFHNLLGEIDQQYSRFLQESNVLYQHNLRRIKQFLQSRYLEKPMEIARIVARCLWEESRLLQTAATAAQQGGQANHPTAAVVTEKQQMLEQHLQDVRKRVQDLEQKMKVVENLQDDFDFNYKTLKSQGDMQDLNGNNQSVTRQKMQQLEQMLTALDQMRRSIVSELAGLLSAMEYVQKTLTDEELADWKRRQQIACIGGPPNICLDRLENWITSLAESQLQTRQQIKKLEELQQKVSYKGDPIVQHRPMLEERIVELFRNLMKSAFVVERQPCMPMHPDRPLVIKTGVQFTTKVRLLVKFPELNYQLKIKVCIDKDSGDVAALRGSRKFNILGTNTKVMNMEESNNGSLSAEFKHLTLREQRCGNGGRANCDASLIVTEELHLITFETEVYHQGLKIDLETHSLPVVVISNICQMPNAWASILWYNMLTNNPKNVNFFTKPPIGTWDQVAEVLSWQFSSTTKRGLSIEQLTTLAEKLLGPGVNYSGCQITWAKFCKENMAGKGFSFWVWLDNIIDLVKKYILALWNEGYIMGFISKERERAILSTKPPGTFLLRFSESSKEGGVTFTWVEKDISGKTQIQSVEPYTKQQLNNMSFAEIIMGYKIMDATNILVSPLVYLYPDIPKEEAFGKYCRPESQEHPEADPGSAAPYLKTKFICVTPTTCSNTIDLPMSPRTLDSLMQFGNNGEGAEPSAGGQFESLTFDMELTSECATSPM
Phospholipase D1, sequence (Q13393 whole entry): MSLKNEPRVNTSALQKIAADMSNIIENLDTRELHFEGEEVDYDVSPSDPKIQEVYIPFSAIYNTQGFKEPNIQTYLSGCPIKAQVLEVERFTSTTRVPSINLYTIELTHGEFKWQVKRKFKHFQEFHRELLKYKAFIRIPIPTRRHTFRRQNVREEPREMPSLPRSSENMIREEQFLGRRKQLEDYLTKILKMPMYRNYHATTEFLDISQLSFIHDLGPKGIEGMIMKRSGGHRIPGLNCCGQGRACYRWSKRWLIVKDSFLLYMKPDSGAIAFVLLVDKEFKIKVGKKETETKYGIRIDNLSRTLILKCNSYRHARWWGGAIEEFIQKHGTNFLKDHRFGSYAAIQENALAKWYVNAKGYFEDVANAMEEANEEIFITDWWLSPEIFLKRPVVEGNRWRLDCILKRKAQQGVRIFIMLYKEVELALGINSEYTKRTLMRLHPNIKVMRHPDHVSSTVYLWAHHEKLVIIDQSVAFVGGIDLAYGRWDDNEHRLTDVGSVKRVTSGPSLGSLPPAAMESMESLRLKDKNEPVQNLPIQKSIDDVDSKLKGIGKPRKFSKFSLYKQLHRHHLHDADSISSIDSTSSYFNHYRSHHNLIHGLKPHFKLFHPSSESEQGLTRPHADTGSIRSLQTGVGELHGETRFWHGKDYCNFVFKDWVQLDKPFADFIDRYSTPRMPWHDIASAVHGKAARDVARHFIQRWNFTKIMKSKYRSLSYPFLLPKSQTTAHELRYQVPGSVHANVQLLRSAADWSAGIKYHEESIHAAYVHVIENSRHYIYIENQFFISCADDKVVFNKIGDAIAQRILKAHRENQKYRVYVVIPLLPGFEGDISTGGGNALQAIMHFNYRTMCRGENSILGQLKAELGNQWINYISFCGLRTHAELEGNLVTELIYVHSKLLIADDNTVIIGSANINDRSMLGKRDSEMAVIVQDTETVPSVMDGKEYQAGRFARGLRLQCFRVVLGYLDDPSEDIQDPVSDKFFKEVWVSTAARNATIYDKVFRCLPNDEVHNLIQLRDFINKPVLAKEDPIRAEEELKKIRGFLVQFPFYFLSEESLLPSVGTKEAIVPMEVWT
P2X purinoceptor 7, sequence (Q99572 whole entry): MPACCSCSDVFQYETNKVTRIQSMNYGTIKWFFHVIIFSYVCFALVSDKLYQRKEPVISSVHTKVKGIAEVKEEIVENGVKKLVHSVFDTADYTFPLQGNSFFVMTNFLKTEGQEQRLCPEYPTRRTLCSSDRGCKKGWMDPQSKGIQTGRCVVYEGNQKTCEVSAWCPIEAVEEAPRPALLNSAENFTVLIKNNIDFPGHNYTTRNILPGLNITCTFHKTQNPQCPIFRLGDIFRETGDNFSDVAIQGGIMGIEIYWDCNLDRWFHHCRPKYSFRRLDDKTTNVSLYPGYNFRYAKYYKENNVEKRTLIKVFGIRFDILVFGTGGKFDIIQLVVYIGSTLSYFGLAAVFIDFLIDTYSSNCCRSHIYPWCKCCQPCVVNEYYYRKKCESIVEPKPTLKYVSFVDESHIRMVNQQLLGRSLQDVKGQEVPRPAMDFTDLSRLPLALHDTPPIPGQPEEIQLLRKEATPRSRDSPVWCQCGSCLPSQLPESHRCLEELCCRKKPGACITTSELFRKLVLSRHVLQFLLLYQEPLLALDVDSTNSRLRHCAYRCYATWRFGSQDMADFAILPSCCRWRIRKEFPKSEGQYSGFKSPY
Phospholipase D2, sequence (O14939 whole entry): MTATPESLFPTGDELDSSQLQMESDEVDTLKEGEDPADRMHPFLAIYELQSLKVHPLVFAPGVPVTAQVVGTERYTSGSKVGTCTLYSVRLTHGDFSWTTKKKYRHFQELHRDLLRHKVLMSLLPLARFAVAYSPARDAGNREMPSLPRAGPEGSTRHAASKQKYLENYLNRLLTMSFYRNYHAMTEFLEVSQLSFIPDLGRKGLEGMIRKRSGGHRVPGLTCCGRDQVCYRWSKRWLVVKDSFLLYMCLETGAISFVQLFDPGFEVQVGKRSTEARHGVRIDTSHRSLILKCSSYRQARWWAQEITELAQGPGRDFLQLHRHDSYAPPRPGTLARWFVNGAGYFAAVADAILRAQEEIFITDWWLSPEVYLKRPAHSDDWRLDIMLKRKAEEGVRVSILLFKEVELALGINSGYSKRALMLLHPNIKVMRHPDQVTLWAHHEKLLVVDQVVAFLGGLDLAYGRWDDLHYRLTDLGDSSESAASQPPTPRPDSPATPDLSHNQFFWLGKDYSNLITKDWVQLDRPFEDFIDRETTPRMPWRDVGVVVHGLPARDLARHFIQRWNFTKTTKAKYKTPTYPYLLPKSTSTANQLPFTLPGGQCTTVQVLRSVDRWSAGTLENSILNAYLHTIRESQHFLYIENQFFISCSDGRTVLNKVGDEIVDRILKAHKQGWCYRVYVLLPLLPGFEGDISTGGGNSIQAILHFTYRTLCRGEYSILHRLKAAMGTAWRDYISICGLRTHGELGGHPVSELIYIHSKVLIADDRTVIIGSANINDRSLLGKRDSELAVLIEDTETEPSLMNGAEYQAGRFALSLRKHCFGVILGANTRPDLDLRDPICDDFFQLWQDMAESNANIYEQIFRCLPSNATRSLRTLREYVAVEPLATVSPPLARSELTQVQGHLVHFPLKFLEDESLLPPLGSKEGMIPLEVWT

For CC(=O)c1ccc2[nH]c(C(=O)Nc3cc(C(F)(F)F)cc(C(F)(F)F)c3)cc2c1, the IC (DLD-1 [1]) was 1 µM, the IC50 (Phospholipase D1) was 0.325 µM and the IC50 (Phospholipase D2) was 0.0151 µM.
Compound CC(C)=CC[C@@H](O)C1=CC(=O)c2c(O)ccc(O)c2C1=O [SHIKONIN] has an IC (LoVo [2]) of 0.5 µM, an IC (RKO [3]) of 0.5 µM and an IC (SW-620 [4]) of 0.5 µM. For the same compound, the IC (HCT-15) was 0.5 µM, the IC (HCT-116 [5]) was 0.5 µM and the IC50 [6] was 0.17 µM.
With CC(C)=CCc1cc(-c2coc3cc(O)c(CC=C(C)C)c(O)c3c2=O)cc(O)c1O the IC50 (SW480 [7]) was 6.97 µM, the IC50 (SW-620 [8]) was 7.33 µM and the IC50 (LoVo [9]) was 7.05 µM.
CC[C@@]1(O)C(=O)OCc2c1cc1n(c2=O)Cc2cc3cc4c(cc3nc2-1)OCO4 showed an IC (SW480 [10]) of 0 nM and an IC (HT-29 [11]) of 0 nM.
CC(C)[C@@H]1C[C@@H](O)[C@H]2[C@@]1(C)CC[C@@]1(C)[C@H]3C(=CC[C@]21C)[C@@]1(C)CC[C@H](O)C(C)(C)[C@@H]1C[C@@H]3O [RUBIARBONOL B] gave an IC (HCT-116 [12]) of 10 µM, an IC (SW-620 [13]) of 10 µM and an IC (HT-29 [14]) of 10 µM.
Compound Clc1cccc(-c2nnnn2Cc2cccnc2)c1Cl has an IC (HCT-116 [15]) of 10 µM, an IC (SW-620 [16]) of 10 µM and an IC50 (P2X purinoceptor 7) of 0.13 µM.
Compound C[C@@H]1CN(CC(=O)N2CC(C)(C)c3nc(CO)c(Cc4ccc(F)cc4)cc32)[C@@H](CN2CCOC[C@H]2C)CN1 [ASTX-660] has an IC (LoVo [17]) of 0.5 nM, an IC (HCT-116 [18]) of 0.5 nM and an IC (DLD-1 [19]) of 0.5 nM. The IC (SW-620 [20]) was 0.5 nM and the IC (HT-29 [21]) was 0.5 nM.
Work on Cc1ccc(COc2ccc3c(c2)C(=O)C(=O)C2=C3OC(C)C2)cc1 (stereo not given) yielded an IC50 (HCT-116 [22]) of 4.07 µM, an IC50 (RKO [23]) of 3.78 µM and a Kd [24] of 6.6 µM.
O=C(O)CCCCC1CCSS1 (stereo not drawn) [LIPOIC ACID, ALPHA] gave an IC50 (HCT-116 [25]) of 266 µM, an IC50 (SW48) of 266 µM and an IC50 (RKO [26]) of 266 µM. It also gave an IC50 (HT-29 [27]) of 266 µM and an IC50 (HCT-116 [28]) of 890 µM.
COc1cc(-c2[o+]c3cc(O)cc(O[C@@H]4O[C@H](CO)[C@@H](O)[C@H](O)[C@H]4O)c3cc2O[C@@H]2O[C@H](CO[C@@H]3O[C@@H](C)[C@H](OC(=O)/C=C/c4ccc(O)cc4)C[C@H]3O)[C@@H](O)[C@H](O)[C@H]2O)cc(O)c1O showed an IC50 (RKO [29]) of 172 µM.
CCC(C)/C=C(\C)[C@H]1C(C)=C[C@@]2(C)C[C@@H](C)CC[C@@H]2[C@H]1C(=O)C1=C/C(=C/c2ccc(O)cc2)NC1=O (stereo not given in full) [TALAROCONVOLUTIN A] gave an IC50 (HCT-116 [30]) of 9.23 µM and an IC50 (SW-620 [31]) of 5.82 µM.
Compound O=C1C(Nc2ccccc2N2CCNCC2)=CC2=NS(=O)(=O)c3cccc1c32 has an IC (SW480 [32]) of 3 µM, an IC (HCT-116 [33]) of 3 µM and an IC (RKO [34]) of 3 µM. For the same compound, the IC (HT-29 [35]) was 3 µM and the Kd [36] was 3.3 µM.
Compound C=C[C@@]12COC(=O)C(=C)[C@@H]1[C@H]1OC(=O)C(=C)[C@@H]1[C@@H](OC(=O)C(=C)CO)C2 [VERNODALIN] has an IC50 (HT-29 [37]) of 7.17 µM, an IC50 (HCT-116 [38]) of 3.17 µM and an IC50 (HCT-116 [39]) of 316 µM. For the same compound, the IC50 (SW-620 [40]) was 355 µM.
In the case of COC(=O)[C@@]12OC[C@]34[C@H]([C@@H](O)[C@@H]1O)[C@@]1(C)CC(=O)C(O)=C(C)[C@@H]1C[C@H]3OC(=O)[C@H](OC(=O)/C=C(\C)C(C)(C)OC(C)=O)[C@@H]24, the IC50 (HCT-116 [41]) is reported as 18.7 µM and the IC50 [42] is reported as 2.4 pM.
In the case of O=C(NC1CCN(CCCCC2(C(=O)NCC(F)(F)F)c3ccccc3-c3ccccc32)CC1)c1ccccc1-c1ccc(C(F)(F)F)cc1 [LOMITAPIDE], the IC (HCT-116 [43]) is reported as 10 µM, the IC (MC-38) is reported as 10 µM and the IC (HT-29 [44]) is reported as 10 µM.
C[C@H]1O[C@@H](O[C@H]2[C@@H](O)C[C@H](O[C@H]3[C@@H](O)C[C@H](O[C@H]4CC[C@@]5(C)[C@H](CC[C@@H]6[C@@H]5CC[C@]5(C)[C@@H](C7=CC(=O)OC7)CC[C@]65O)C4)O[C@@H]3C)O[C@@H]2C)C[C@H](O)[C@@H]1O [DIGITOXIN] gave an IC (SW-620 [45]) of 200 nM and an IC (SW480 [46]) of 200 nM.
Compound CC(C)c1onc(-c2c(Cl)cccc2Cl)c1COc1ccc(/C=C/c2cccc(C(=O)O)c2)c(Cl)c1 has an IC50 (HT-29 [47]) of 13.8 µM and an IC50 (SW-620 [48]) of 7.6 µM.
CCN(CC)C(=S)SSC(=S)N(CC)CC [DISULFIRAM] showed an IC (RKO [49]) of 0.1 µM.

— ChEMBL document CHEMBL5512605, “Targeted regulated cell death with small molecule compounds in colorectal cancer: Current perspectives of targeted therapy and molecular mechanisms” (Eur J Med Chem, 2024)
